Test results: ChEMBL document CHEMBL3885861, “Open TG-GATES”

Species: Rattus norvegicus
Experiment: Open TG-GATES - Regimen: Single
Assay type: toxicity, organism-based, Sprague-Dawley
Parameters: regimen Single, gender Male, age 6 weeks
Conditions: in vivo, po, 100 mg/kg, route gavage, dose level Low; for ALP / ALT / AST / BUN / CRE / Ca / Cl / DBIL / GLC / IP / K / LDH / Na / PL / RALB / TBIL / TC / TG / TP / gamma-GTP: tissue Plasma

Question: What does the source list for `O=C(O)c1cccnc1` [NIACIN]?
Answer: Bas (3 h, tissue Blood): 0%; Eos (3 h, tissue Blood): 1%; Fbg (3 h, tissue Blood): 311 mg/dL; Hb (3 h, tissue Blood): 13.6 g/dL; Ht (3 h, tissue Blood): 40.7%; Lym (3 h, tissue Blood): 78.4%; MCHC (3 h, tissue Blood): 33.4%; MCV (3 h, tissue Blood): 65.5 fL; Mono (3 h, tissue Blood): 2.6%; Neu (3 h, tissue Blood): 16.6%; PT (3 h, tissue Blood): 16.2 s; Plat (3 h, tissue Blood): 118.2 x10_4/uL; RBC (3 h, tissue Blood): 621.4 x10_4/ul; Ret (3 h, tissue Blood): 8.2%; WBC (3 h, tissue Blood): 107.6 x10_2/uL; ALP (3 h): 1552.4 IU/L; ALT (3 h): 42.2 IU/L; AST (3 h): 79.8 IU/L; BUN (3 h): 13.6 mg/dL; CRE (3 h): 0.2 mg/dL; Ca (3 h): 10.8 mg/dL; Cl (3 h): 105.4 meq/L; DBIL (3 h): 0 mg/dL; GLC (3 h): 183 mg/dL; IP (3 h): 8.7 mg/dL; K (3 h): 3.9 meq/L; LDH (3 h): 196.8 IU/L; Na (3 h): 141 meq/L; PL (3 h): 118.4 mg/dL; RALB (3 h): 3 g/dL; TBIL (3 h): 0.008 mg/dL; TC (3 h): 71 mg/dL; TG (3 h): 27.8 mg/dL; TP (3 h): 5.6 g/dL; gamma-GTP (3 h): 1.4 IU/L; APTT (6 h, tissue Blood): 22.5 s; Bas (6 h, tissue Blood): 0%; Eos (6 h, tissue Blood): 1%; Fbg (6 h, tissue Blood): 314 mg/dL; Hb (6 h, tissue Blood): 13.4 g/dL; Ht (6 h, tissue Blood): 40%; Lym (6 h, tissue Blood): 78.4%; MCHC (6 h, tissue Blood): 33.4%; Mono (6 h, tissue Blood): 3.4%; Neu (6 h, tissue Blood): 16.2%; PT (6 h, tissue Blood): 16.5 s; Plat (6 h, tissue Blood): 119.1 x10_4/uL; RBC (6 h, tissue Blood): 626.8 x10_4/ul; Ret (6 h, tissue Blood): 8%; WBC (6 h, tissue Blood): 87.9 x10_2/uL; ALP (6 h): 1431.4 IU/L; ALT (6 h): 38.8 IU/L; AST (6 h): 69.8 IU/L; BUN (6 h): 12.4 mg/dL; CRE (6 h): 0.2 mg/dL; Ca (6 h): 10.9 mg/dL; Cl (6 h): 105 meq/L; DBIL (6 h): 0.002 mg/dL; GLC (6 h): 186 mg/dL; IP (6 h): 8.9 mg/dL; K (6 h): 3.8 meq/L; LDH (6 h): 156.8 IU/L; Na (6 h): 139.8 meq/L; PL (6 h): 115 mg/dL; RALB (6 h): 3 g/dL; TBIL (6 h): 0.008 mg/dL; TC (6 h): 64.4 mg/dL; TG (6 h): 37.2 mg/dL; TP (6 h): 5.5 g/dL; gamma-GTP (6 h): 1.6 IU/L; Bas (9 h, tissue Blood): 0%; Eos (9 h, tissue Blood): 0.8%; Fbg (9 h, tissue Blood): 305.4 mg/dL; Hb (9 h, tissue Blood): 13.5 g/dL; Ht (9 h, tissue Blood): 40.6%; Lym (9 h, tissue Blood): 81.6%; MCHC (9 h, tissue Blood): 33.3%; MCV (9 h, tissue Blood): 65.6 fL; Mono (9 h, tissue Blood): 2%; Neu (9 h, tissue Blood): 15.2%; PT (9 h, tissue Blood): 15.6 s; Plat (9 h, tissue Blood): 126.3 x10_4/uL; RBC (9 h, tissue Blood): 618.6 x10_4/ul; Ret (9 h, tissue Blood): 8.4%; WBC (9 h, tissue Blood): 88.6 x10_2/uL; ALP (9 h): 1314.4 IU/L; ALT (9 h): 38.8 IU/L; AST (9 h): 70.4 IU/L; CRE (9 h): 0.2 mg/dL; Ca (9 h): 10.8 mg/dL; Cl (9 h): 105.4 meq/L; DBIL (9 h): 0.002 mg/dL; GLC (9 h): 182.8 mg/dL; IP (9 h): 8.9 mg/dL; K (9 h): 4.1 meq/L; LDH (9 h): 161.4 IU/L; Na (9 h): 140.6 meq/L; PL (9 h): 134 mg/dL; RALB (9 h): 2.9 g/dL; TBIL (9 h): 0.008 mg/dL; TC (9 h): 73 mg/dL; TG (9 h): 77 mg/dL; TP (9 h): 5.5 g/dL; gamma-GTP (9 h): 1.6 IU/L; Bas (24 h, tissue Blood): 0%; Eos (24 h, tissue Blood): 1%; Fbg (24 h, tissue Blood): 327.8 mg/dL; Hb (24 h, tissue Blood): 13.7 g/dL; Ht (24 h, tissue Blood): 40.6%; Lym (24 h, tissue Blood): 77.8%; MCHC (24 h, tissue Blood): 33.6%; MCV (24 h, tissue Blood): 64.8 fL; Mono (24 h, tissue Blood): 3%; Neu (24 h, tissue Blood): 17.2%; PT (24 h, tissue Blood): 16 s; Plat (24 h, tissue Blood): 109.3 x10_4/uL; RBC (24 h, tissue Blood): 627.6 x10_4/ul; Ret (24 h, tissue Blood): 7.6%; WBC (24 h, tissue Blood): 96.3 x10_2/uL; ALP (24 h): 1716.6 IU/L; ALT (24 h): 41.6 IU/L; AST (24 h): 67.2 IU/L; BUN (24 h): 16.2 mg/dL; CRE (24 h): 0.2 mg/dL; Ca (24 h): 10.5 mg/dL; Cl (24 h): 104.6 meq/L; DBIL (24 h): 0.002 mg/dL; GLC (24 h): 192 mg/dL; IP (24 h): 7.6 mg/dL; K (24 h): 4.1 meq/L; LDH (24 h): 155.4 IU/L; Na (24 h): 139.6 meq/L; PL (24 h): 154.2 mg/dL; RALB (24 h): 3.1 g/dL; TBIL (24 h): 0 mg/dL; TC (24 h): 75.2 mg/dL; TG (24 h): 158.4 mg/dL; TP (24 h): 5.6 g/dL
